This passage reports IC50 results from patent US9556179B2 (BRISTOL-MYERS SQUIBB COMPANY, priority 2012, dated 2017).

SMILES strings stand for the structures.

One experiment has as its target CK1δ (Homo sapiens (Human), UniProt P48730). The experiment in a line: CK1δ kinase assay (Caliper LABCHIP electrophoretic separation of fluoresceinated peptide substrate and product). The class given is biochemical. As to conditions: 200 pM enzyme, 50 μM ATP, 22 hours at room temperature. A digest of the protocol:
(§1)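 Kinase reactions ran 22 h at room temperature, were stopped with EDTA, and phosphorylated product was separated electrophoretically from unphosphorylated fluoresceinated peptide. Compounds were tested at eleven concentrations from 10 mM DMSO stocks. IC50 by non-linear regression.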

The target in another experiment is CK1ε (Homo sapiens (Human), UniProt P49674). The experiment is described as follows: CK1ε kinase assay (Caliper LABCHIP electrophoretic separation of fluoresceinated peptide substrate and product). The class given is biochemical. Conditions: 200 pM enzyme, 50 μM ATP, 22 hours at room temperature. The essentials: as §1
Chain of CK1ε (P49674 whole entry): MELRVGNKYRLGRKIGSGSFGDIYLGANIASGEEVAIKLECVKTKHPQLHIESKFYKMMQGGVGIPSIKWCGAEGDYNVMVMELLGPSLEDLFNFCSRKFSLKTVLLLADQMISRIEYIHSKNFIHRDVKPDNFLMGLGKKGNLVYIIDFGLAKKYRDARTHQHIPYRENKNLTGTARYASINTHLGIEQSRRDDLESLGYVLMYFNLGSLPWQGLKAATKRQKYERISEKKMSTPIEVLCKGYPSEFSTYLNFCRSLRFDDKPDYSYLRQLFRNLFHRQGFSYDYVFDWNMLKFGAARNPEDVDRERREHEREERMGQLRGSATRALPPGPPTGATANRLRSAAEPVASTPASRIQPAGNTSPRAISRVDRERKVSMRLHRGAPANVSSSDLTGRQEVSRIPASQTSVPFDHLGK

Chain of CK1δ (P48730 whole entry): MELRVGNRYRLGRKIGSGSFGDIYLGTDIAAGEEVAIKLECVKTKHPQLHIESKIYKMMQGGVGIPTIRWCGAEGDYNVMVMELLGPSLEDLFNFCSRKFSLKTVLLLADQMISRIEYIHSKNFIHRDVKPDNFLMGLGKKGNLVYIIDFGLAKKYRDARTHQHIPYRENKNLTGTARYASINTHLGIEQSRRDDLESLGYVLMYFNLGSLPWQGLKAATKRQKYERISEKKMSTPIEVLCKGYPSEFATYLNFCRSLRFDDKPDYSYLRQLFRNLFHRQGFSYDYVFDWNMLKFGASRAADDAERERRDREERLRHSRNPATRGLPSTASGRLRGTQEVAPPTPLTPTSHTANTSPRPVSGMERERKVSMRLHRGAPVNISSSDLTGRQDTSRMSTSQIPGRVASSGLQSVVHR

For `O=C(Nc1cn2nc(-c3c(-c4ccc(F)cc4)ncn3-c3cccnc3)ccc2n1)c1cccc(-c2cccnc2)c1` [Compound 425, N-(6-(4-(4-Fluorophenyl)-1-(pyridin-3-yl)-1H-imidazol-5-yl)imidazo[1,2-b]pyridazin-2-yl)-3-(pyridin-3-yl)benzamide], the results for the IC50 against CK1δ and against CK1ε were 1.1 nM and 11 nM, respectively.

On to `O=C(Nc1cn2nc(-c3c(-c4ccc(F)cc4)ncn3C3CC3)ccc2n1)c1ccnc(F)c1` [Compound 426, N-(6-(1-Cyclopropyl-4-(4-fluorophenyl)-1H-imidazol-5-yl)imidazo[1,2-b]pyridazin-2-yl)-2-fluoroisonicotinamide], for which the half-maximal inhibitory concentration (IC50) on CK1δ stood at 0.9 nM; on CK1ε it was 10.4 nM.

On to `O=C(Nc1cn2nc(-c3c(-c4ccc(F)cc4)ncn3C3CC3)ccc2n1)c1ccncc1` [Compound 427, N-(6-(1-Cyclopropyl-4-(4-fluorophenyl)-1H-imidazol-5-yl)imidazo[1,2-b]pyridazin-2-yl)isonicotinamide], for which the results for the IC50 at CK1δ and against CK1ε were 0.7 nM and 6.5 nM, respectively.

On to `O=C(Nc1cn2nc(-c3c(-c4ccc(F)cc4)ncn3C3CC3)ccc2n1)c1ccnc(N2CCOCC2)c1` [Compound 428, N-(6-(1-Cyclopropyl-4-(4-fluorophenyl)-1H-imidazol-5-yl)imidazo[1,2-b]pyridazin-2-yl)-2-morpholinoisonicotinamide], for which the results for the IC50 on CK1δ and on CK1ε were 0.9 nM and 9.1 nM, respectively.

`O=C(Nc1cn2nc(-c3c(-c4ccc(F)cc4)ncn3C3CCOCC3)ccc2n1)c1cc(F)nc(F)c1` [Compound 433, 2,6-Difluoro-N-(6-(4-(4-fluorophenyl)-1-(tetrahydro-2H-pyran-4-yl)-1H-imidazol-5-yl)imidazo[1,2-b]pyridazin-2-yl)isonicotinamide]: the concentration for half-maximal inhibition (IC50) came out at 0.2 nM on CK1δ and 1.2 nM on CK1ε.

For `O=C(Nc1cn2nc(-c3c(-c4ccc(F)cc4)ncn3C3CCOCC3)ccc2n1)c1ccncc1` [Compound 434, N-(6-(4-(4-Fluorophenyl)-1-(tetrahydro-2H-pyran-4-yl)-1H-imidazol-5-yl)imidazo[1,2-b]pyridazin-2-yl)isonicotinamide], the concentration for half-maximal inhibition (IC50) on CK1δ turned out to be 0.3 nM; at CK1ε, 1.8 nM.

Turning to `O=C(Nc1cn2nc(-c3c(-c4ccc(F)cc4)nc4n3CCC4)ccc2n1)c1ccnc(F)c1` [Compound 436, 2-Fluoro-N-(6-(2-(4-fluorophenyl)-6,7-dihydro-5H-pyrrolo[1,2-a]imidazol-3-yl)imidazo[1,2-b]pyridazin-2-yl)isonicotinamide], the IC50 on CK1δ was 0.4 nM; against CK1ε it was 2 nM.

With `O=C(Nc1cn2nc(-c3c(-c4ccc(F)cc4)nc4n3CCC4)ccc2n1)c1ccncc1` [Compound 438, N-(6-(2-(4-Fluorophenyl)-6,7-dihydro-5H-pyrrolo[1,2-a]imidazol-3-yl)imidazo[1,2-b]pyridazin-2-yl)isonicotinamide], the IC50 came out at 0.3 nM against CK1δ and 2.1 nM on CK1ε.

With `O=C(Nc1cn2nc(-c3c(-c4ccc(F)cc4)nc4n3CCC4)ccc2n1)c1ccnc(N2CCOCC2)c1` [Compound 439, N-(6-(2-(4-Fluorophenyl)-6,7-dihydro-5H-pyrrolo[1,2-a]imidazol-3-yl)imidazo[1,2-b]pyridazin-2-yl)-2-morpholinoisonicotinamide], the half-inhibitory concentration (IC50) on CK1δ worked out at 1.3 nM; on CK1ε, 3.3 nM.

Consider `O=C(Nc1cn2nc(-c3c(-c4ccc(F)cc4)nc4n3CCC4)ccc2n1)c1cccc(-c2cccnc2)c1` [Compound 440, N-(6-(2-(4-Fluorophenyl)-6,7-dihydro-5H-pyrrolo[1,2-a]imidazol-3-yl)imidazo[1,2-b]pyridazin-2-yl)-3-(pyridin-3-yl)benzamide], for which the 50% inhibitory concentration (IC50) against CK1δ came out at 0.4 nM; against CK1ε it was 1.3 nM.

With `O=C(Nc1cn2nc(-c3c(-c4ccc(F)cc4)nc4n3CCCC4)ccc2n1)c1ccnc(F)c1` [Compound 441, 2-Fluoro-N-(6-(2-(4-fluorophenyl)-5,6,7,8-tetrahydroimidazo[1,2-a]pyridin-3-yl)imidazo[1,2-b]pyridazin-2-yl)isonicotinamide], the IC50 at CK1δ was determined as 0.8 nM; against CK1ε, 5.4 nM.

In the case of `O=C(Nc1cn2nc(-c3c(-c4ccc(F)cc4)nc4n3CCCC4)ccc2n1)c1cccc(-c2cccnc2)c1` [Compound 442, N-(6-(2-(4-Fluorophenyl)-5,6,7,8-tetrahydroimidazo[1,2-a]pyridin-3-yl)imidazo[1,2-b]pyridazin-2-yl)-3-(pyridin-3-yl)benzamide], the half-maximal inhibitory concentration (IC50) at CK1δ was 0.4 nM; on CK1ε, 2.5 nM.

Regarding `O=C(Nc1cn2nc(-c3c(-c4ccc(F)cc4)nc4n3CCCC4)ccc2n1)c1ccnc(N2CCOCC2)c1` [Compound 443, N-(6-(2-(4-Fluorophenyl)-5,6,7,8-tetrahydroimidazo[1,2-a]pyridin-3-yl)imidazo[1,2-b]pyridazin-2-yl)-2-morpholinoisonicotinamide], the figures for the half-inhibitory concentration (IC50) on CK1δ and on CK1ε were 0.4 nM and 2.7 nM, respectively.

As for `O=C(Nc1cn2nc(-c3c(-c4ccc(F)cc4)nc4n3CCCC4)ccc2n1)c1ccncc1` [Compound 444, N-(6-(2-(4-Fluorophenyl)-5,6,7,8-tetrahydroimidazo[1,2-a]pyridin-3-yl)imidazo[1,2-b]pyridazin-2-yl)isonicotinamide], the figures for the IC50 against CK1δ and against CK1ε were 0.2 nM and 2.4 nM, respectively.

As for `O=C(Nc1cn2nc(-c3c(-c4ccc(F)cc4)nc4n3CCCC4)ccc2n1)c1cc(F)nc(F)c1` [Compound 445, 2,6-Difluoro-N-(6-(2-(4-fluorophenyl)-5,6,7,8-tetrahydroimidazo[1,2-a]pyridin-3-yl)imidazo[1,2-b]pyridazin-2-yl)isonicotinamide], the half-maximal inhibitory concentration (IC50) on CK1δ worked out at 0.4 nM; at CK1ε it was 4.7 nM.

Turning to `O=C(Nc1cn2nc(-c3c(-c4ccc(F)cc4)nc4n3CCOC4)ccc2n1)c1ccnc(F)c1` [Compound 447, 2-Fluoro-N-(6-(2-(4-fluorophenyl)-6,8-dihydro-5H-imidazo[2,1-c][1,4]oxazin-3-yl)imidazo[1,2-b]pyridazin-2-yl)isonicotinamide], the IC50 amounted to 0.4 nM against CK1δ and 5.8 nM on CK1ε.

On to `O=C(Nc1cn2nc(-c3c(-c4ccc(F)cc4)nc4n3CCOC4)ccc2n1)c1ccncc1` [Compound 448, N-(6-(2-(4-Fluorophenyl)-6,8-dihydro-5H-imidazo[2,1-c][1,4]oxazin-3-yl)imidazo[1,2-b]pyridazin-2-yl)isonicotinamide], for which the half-maximal inhibitory concentration (IC50) came out at 0.4 nM against CK1δ and 3.6 nM against CK1ε.

`O=C(Nc1cn2nc(-c3c(-c4ccc(F)cc4)nc4n3CCOC4)ccc2n1)c1cc(F)nc(F)c1` [Compound 449, 2,6-Difluoro-N-(6-(2-(4-fluorophenyl)-6,8-dihydro-5H-imidazo[2,1-c][1,4]oxazin-3-yl)imidazo[1,2-b]pyridazin-2-yl)isonicotinamide]: the results for the half-inhibitory concentration (IC50) against CK1δ and against CK1ε were 0.7 nM and 9 nM, respectively.

With `O=C(Nc1cn2nc(-c3c(-c4ccc(F)cc4)nc4n3CCOC4)ccc2n1)c1ccnc(N2CCOCC2)c1` [Compound 450, N-(6-(2-(4-Fluorophenyl)-6,8-dihydro-5H-imidazo[2,1-c][1,4]oxazin-3-yl)imidazo[1,2-b]pyridazin-2-yl)-2-morpholinoisonicotinamide], the half-inhibitory concentration (IC50) on CK1δ was 0.7 nM; against CK1ε, 6.9 nM.

With `O=C(Nc1cn2nc(-c3c(-c4ccc(F)cc4)nc4n3CCOC4)ccc2n1)c1cccc(-c2cccnc2)c1` [Compound 451, N-(6-(2-(4-Fluorophenyl)-6,8-dihydro-5H-imidazo[2,1-c][1,4]oxazin-3-yl)imidazo[1,2-b]pyridazin-2-yl)-3-(pyridin-3-yl)benzamide], the IC50 was determined as 0.4 nM on CK1δ and 4.6 nM at CK1ε.

For the compound `O=C(Nc1cn2nc(-c3c(-c4ccc(F)cc4)nc4ccc(N5CCOCC5)cn34)ccc2n1)c1ccnc(F)c1` [Compound 452, 2-Fluoro-N-(6-(2-(4-fluorophenyl)-6-morpholinoimidazo[1,2-a]pyridin-3-yl)imidazo[1,2-b]pyridazin-2-yl)isonicotinamide], the IC50 was determined as 0.3 nM against CK1δ and 1.5 nM at CK1ε.

Consider `O=C(Nc1cn2nc(-c3c(-c4ccc(F)cc4)nc4n3CCNC4)ccc2n1)c1ccncc1` [Compound 456, N-(6-(2-(4-Fluorophenyl)-5,6,7,8-tetrahydroimidazo[1,2-a]pyrazin-3-yl)imidazo[1,2-b]pyridazin-2-yl)isonicotinamide], for which the values for the IC50 against CK1δ and against CK1ε were 0.9 nM and 7 nM, respectively.

Turning to `O=C(Nc1cn2nc(-c3c(-c4ccc(F)cc4)nc4n3CCNC4)ccc2n1)c1cc(F)nc(F)c1` [Compound 457, 2,6-Difluoro-N-(6-(2-(4-fluorophenyl)-5,6,7,8-tetrahydroimidazo[1,2-a]pyrazin-3-yl)imidazo[1,2-b]pyridazin-2-yl)isonicotinamide], the concentration for half-maximal inhibition (IC50) against CK1δ was 0.5 nM; on CK1ε it was 8.5 nM.

Consider `O=C(Nc1cn2nc(-c3c(-c4ccc(F)cc4)nc4n3CCNC4)ccc2n1)c1ccnc(N2CCOCC2)c1` [Compound 458, N-(6-(2-(4-Fluorophenyl)-5,6,7,8-tetrahydroimidazo[1,2-a]pyrazin-3-yl)imidazo[1,2-b]pyridazin-2-yl)-2-morpholinoisonicotinamide], for which the IC50 at CK1δ came to 0.3 nM; against CK1ε, 3.7 nM.

With `O=C(Nc1cn2nc(-c3c(-c4ccc(F)cc4)nc4n3CCNC4)ccc2n1)c1cccc(-c2cccnc2)c1` [Compound 459, N-(6-(2-(4-Fluorophenyl)-5,6,7,8-tetrahydroimidazo[1,2-a]pyrazin-3-yl)imidazo[1,2-b]pyridazin-2-yl)-3-(pyridin-3-yl)benzamide], the IC50 against CK1δ is 0.3 nM; at CK1ε it was 2.6 nM.

For `CC(=O)N1CCn2c(nc(-c3ccc(F)cc3)c2-c2ccc3nc(NC(=O)c4ccnc(F)c4)cn3n2)C1` [Compound 460, N-(6-(7-Acetyl-2-(4-fluorophenyl)-5,6,7,8-tetrahydroimidazo[1,2-a]pyrazin-3-yl)imidazo[1,2-b]pyridazin-2-yl)-2-fluoroisonicotinamide], the figures for the IC50 at CK1δ and on CK1ε were 0.6 nM and 3.7 nM, respectively.

The term IC50 denotes the concentration needed to halve the response being measured. Read a high IC50 as lower potency.
